Source: patent US8410097B2 (priority 2005, dated 2013)
Read-outs that look alike come from different tables or passages of the source.

Legend:
CB2 cannabinoid receptor = CB2 cannabinoid receptor (Mus musculus, UniProt P47936); assay: biochemical; type: binding; conditions: mouse spleen membranes
Experimental: Some of the inventive analogs were tested for CB2 receptor binding affinity and for CB1 receptor affinity (to determine selectivity). […] The lower the Ki value the higher the binding affinity.
(§1) The treated membranes were subsequently used in the binding assay described below. Approximately 30 μg of membranes were incubated in silanized 96-well microtiter plate with TME containing 0.1% essentially fatty acid-free bovine serum albumin (BSA), 0.8 nM [^3H] […] Radioactivity was detected using MicroScint 20 scintillation cocktail added directly to the dried filterplates, and the filterplates were counted using a Packard Instruments Top-Count. […] Data collected from three independent experiments performed with duplicate determinations was normalized between 100% and 0% specific binding for [^3H] […] The normalized data was analyzed using a 4-parameter nonlinear logistic equation to yield IC50 values.
Silanized centrifuge tubes were used throughout to minimize receptor loss due to adsorption. The CB2 binding assay was conducted in the same manner as for the CB1 binding assay. The binding affinities (Ki) were also expressed in nanomoles (nM).

CB1 cannabinoid receptor = biological target: T1, CB1 cannabinoid receptor (Rattus norvegicus, UniProt P20272); assay: biochemical; type: binding; conditions: for Ki: rat forebrain membranes; for Selectivity CB1: CB1 over CB2 binding selectivity (ratio of Ki)
T1 construct: membranes were prepared from rat forebrain membranes; from tissue; host or cells: rat forebrain membranes
T1 sequence (P20272 whole entry): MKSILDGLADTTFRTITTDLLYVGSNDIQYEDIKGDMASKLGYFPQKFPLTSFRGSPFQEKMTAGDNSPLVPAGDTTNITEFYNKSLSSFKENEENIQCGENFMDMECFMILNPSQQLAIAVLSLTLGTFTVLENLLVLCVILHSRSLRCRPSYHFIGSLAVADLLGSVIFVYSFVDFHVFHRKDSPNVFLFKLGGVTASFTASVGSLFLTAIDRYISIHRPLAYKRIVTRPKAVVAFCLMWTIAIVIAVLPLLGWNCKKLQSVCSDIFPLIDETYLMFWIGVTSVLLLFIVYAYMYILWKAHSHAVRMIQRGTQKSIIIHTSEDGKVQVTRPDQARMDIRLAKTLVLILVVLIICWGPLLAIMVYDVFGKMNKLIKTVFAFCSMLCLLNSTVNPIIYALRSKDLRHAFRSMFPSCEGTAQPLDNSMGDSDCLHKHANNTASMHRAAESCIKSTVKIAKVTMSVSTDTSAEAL
Experimental: Some of the inventive analogs were tested for CB2 receptor binding affinity and for CB1 receptor affinity (to determine selectivity). […] The lower the Ki value the higher the binding affinity. […]
Membranes, previously frozen at −80° C., were thawed on ice. To the stirred suspension was added three volumes of TME (25 mM Tris-HCl buffer, 5 mM MgCl2 and 1 mM EDTA) at a pH 7.4. The suspension was incubated at 4° C. for 30 min. At the end of the incubation, the membranes were pelleted and washed three times with TME.
as §1

[1] = Table 8, read-out: Receptor Affinities Ki (nM) CB2
[2] = Receptor Affinities Ki (nM) CB1, Table 8
[3] = Table 9, read-out: Receptor Affinities Ki (nM) CB2
[4] = Receptor Affinities Ki (nM) CB1, Table 9
[5] = Table 10, read-out: Receptor Affinities Ki (nM) CB2
[6] = Receptor Affinities Ki (nM) CB1, Table 10

Chain of CB2 cannabinoid receptor (P47936 whole entry): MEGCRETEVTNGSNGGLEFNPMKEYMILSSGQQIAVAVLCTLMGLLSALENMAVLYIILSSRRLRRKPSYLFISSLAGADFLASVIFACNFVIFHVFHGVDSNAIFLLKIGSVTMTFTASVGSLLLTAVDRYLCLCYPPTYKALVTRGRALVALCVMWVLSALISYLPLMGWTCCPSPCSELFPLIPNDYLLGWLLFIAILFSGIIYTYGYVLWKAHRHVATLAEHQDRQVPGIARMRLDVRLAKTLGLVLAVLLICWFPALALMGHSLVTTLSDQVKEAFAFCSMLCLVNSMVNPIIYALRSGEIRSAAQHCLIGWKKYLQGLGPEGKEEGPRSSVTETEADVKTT

Structure (SMILES) | Ki (CB2 cannabinoid receptor; [1]) [nM] | Ki (CB1 cannabinoid receptor; [2]) [nM] | Selectivity CB1 (CB1 cannabinoid receptor; Table 8) | Ki (CB2 cannabinoid receptor; [5]) [nM] | Ki (CB1 cannabinoid receptor; [6]) [nM] | Selectivity CB1 (CB1 cannabinoid receptor; Table 10) | further results
N#CCCC#Cc1ccc(-c2c(CO)c(C(=O)NN3CCCCC3)nn2-c2ccc(Cl)cc2Cl)cc1 [Compound 3-1] | 265 | 6 | 44 | – | – | – | –
O=C(NN1CCCCC1)c1nn(-c2ccc(Cl)cc2Cl)c(-c2ccc(C#CCCO)cc2)c1CO [Compound 3-2] | 165 | 16 | 10 | – | – | – | –
Cc1c(C(=O)NN2CCCCC2)nn(-c2ccc(Cl)cc2Cl)c1-c1ccc(C#CCN=[N+]=[N-])cc1 [Compound 3-3] | 750 | 3 | 250 | – | – | – | –
O=C(NN1CCCCC1)c1nn(-c2ccc(Cl)cc2Cl)c(-c2ccc(C#CCO)cc2)c1CO [Compound 3-4] | 313 | 21 | 15 | – | – | – | –
Cc1c(C(=O)NN2CCCCC2)nn(-c2ccc(Cl)cc2Cl)c1-c1ccc(C#CCCCO)cc1 [Compound 3-5] | 144 | 2 | 72 | – | – | – | –
Cc1c(C(=O)NN2CC3CCCC3C2)nn(-c2ccc(Cl)cc2Cl)c1-c1ccc(C#CCCO)cc1 (stereo not drawn) [Compound 3-6] | 199 | 7 | 28 | – | – | – | –
Cc1c(C(=O)NN2CCCCC2)nn(-c2ccc(Cl)cc2Cl)c1-c1ccc(C#CCCCCO)cc1 [Compound 3-7] | 116 | 3 | 39 | – | – | – | –
Cc1c(C(=O)N(C)C2CCCCC2)nc(-c2ccc(Cl)cc2Cl)n1-c1ccc(C#CCCO)cc1 [Compound 3-8] | – | 12 | 36 | – | – | – | Ki (CB2 cannabinoid receptor; Receptor Affinities Ki (nM) CB2, Table 8): 440 nM
Cc1c(C(=O)N(C)C2CCCCC2)nc(-c2ccc(Cl)cc2Cl)n1-c1ccc(C#CCO)cc1 [Compound 3-9] | 257 | 27 | 9 | – | – | – | –
N#CCCC#Cc1ccc(-n2c(-c3ccc(Cl)cc3Cl)nc(C(=O)NN3CCCCC3)c2CO)cc1 [Compound 3-10] | 279 | 2 | 140 | – | – | – | –
Cc1c(C(=O)N(C)C2CCCCC2)nc(-c2ccc(Cl)cc2Cl)n1-c1ccc(C#CCN=[N+]=[N-])cc1 [Compound 3-11] | 82 | 1 | 82 | – | – | – | –
Cc1c(C(=O)NN2CCCCC2)nn(-c2ccc(Cl)cc2Cl)c1-c1ccc(CCCO)cc1 [Compound 4-1, 1-(2,4-Dichloro-phenyl)-5-[4-(3-hydroxy-propyl)-phenyl]-4-methyl-1H-pyrazole-3-carboxylic acid piperidin-1-ylamide] | – | – | – | – | – | – | Ki (CB2 cannabinoid receptor; [3]): 230 nM; Ki (CB1 cannabinoid receptor; [4]): 26 nM; Selectivity CB1 (CB1 cannabinoid receptor; Table 9): 8
Cc1c(C(=O)NN2CCCCC2)nn(-c2ccc(Cl)cc2Cl)c1-c1ccc(CCCCO)cc1 [Compound 4-2] | – | – | – | – | – | – | Ki (CB2 cannabinoid receptor; [3]): 43 nM; Ki (CB1 cannabinoid receptor; [4]): 2 nM; Selectivity CB1 (CB1 cannabinoid receptor; Table 9): 21
O=C(NN1CCCCC1)c1nn(-c2ccc(Cl)cc2Cl)c(-c2ccc(CCCCO)cc2)c1CO [Compound 4-3] | – | – | – | – | – | – | Ki (CB2 cannabinoid receptor; [3]): 7540 nM; Ki (CB1 cannabinoid receptor; [4]): 31 nM; Selectivity CB1 (CB1 cannabinoid receptor; Table 9): 243
Cc1c(C(=O)NN2CCCCC2)nn(-c2ccc(Cl)cc2Cl)c1-c1ccc(CCC#N)cc1 [Compound 4-4] | – | – | – | – | – | – | Ki (CB2 cannabinoid receptor; [3]): 2290 nM; Ki (CB1 cannabinoid receptor; [4]): 13 nM; Selectivity CB1 (CB1 cannabinoid receptor; Table 9): 176
Cc1c(C(=O)NN2CCCCC2)nn(-c2ccc(Cl)cc2Cl)c1-c1ccc(CCCCN=[N+]=[N-])cc1 [Compound 4-5] | – | – | – | – | – | – | Ki (CB2 cannabinoid receptor; [3]): 177 nM; Ki (CB1 cannabinoid receptor; [4]): 3 nM; Selectivity CB1 (CB1 cannabinoid receptor; Table 9): 59
O=C(NN1CCCCC1)c1nn(-c2ccc(Cl)cc2Cl)c(-c2ccc(CCCO)cc2)c1CO [Compound 4-6] | – | – | – | – | – | – | Ki (CB2 cannabinoid receptor; [3]): 66 nM; Ki (CB1 cannabinoid receptor; [4]): 21 nM; Selectivity CB1 (CB1 cannabinoid receptor; Table 9): 3

Structure (SMILES) | Ki (CB2 cannabinoid receptor; [1]) [nM] | Ki (CB1 cannabinoid receptor; [2]) [nM] | Selectivity CB1 (CB1 cannabinoid receptor; Table 8) | Ki (CB2 cannabinoid receptor; [5]) [nM] | Ki (CB1 cannabinoid receptor; [6]) [nM] | Selectivity CB1 (CB1 cannabinoid receptor; Table 10) | further results
Cc1c(C(=O)N(C)C2CCCCC2)nc(-c2ccc(Cl)cc2Cl)n1-c1ccc(CCCO)cc1 [Compound 4-7] | – | – | – | – | – | – | Ki (CB2 cannabinoid receptor; [3]): 290 nM; Ki (CB1 cannabinoid receptor; [4]): 100 nM; Selectivity CB1 (CB1 cannabinoid receptor; Table 9): 3
Cc1c(C(=O)NN2CCCCC2)nn(-c2ccc(Cl)cc2Cl)c1-c1ccc(C#CCN(C)C)cc1 [Compound 5-1] | – | – | – | 76 | 51 | 1.5 | –
Cc1c(C(=O)NN2CCCCC2)nn(-c2ccc(Cl)cc2Cl)c1-c1ccc(C#CCNC(=O)OC(C)(C)C)cc1 [Compound 5-2] | – | – | – | 88 | 68 | 1.3 | –
Cc1c(C(=O)NN2CCCCC2)nn(-c2ccc(Cl)cc2Cl)c1-c1ccc(C#CCN(C)C)cc1.Cl [Compound 5-3] | – | – | – | 66 | 30 | 2.2 | –
Cc1c(C(=O)NN2CCCCC2)nn(-c2ccc(Cl)cc2Cl)c1-c1ccc(C#CCN)cc1 [Compound 5-4] | – | – | – | 40 | 21 | 2 | –
Cc1c(C(=O)NN2CCCCC2)nn(-c2ccc(Cl)cc2Cl)c1-c1ccc(C#CCN)cc1.Cl [Compound 5-5] | – | – | – | 30 | 30 | 1 | –
Cc1c(C(=O)NN2CCCCC2)nn(-c2ccc(Cl)cc2Cl)c1-c1ccc(C#CC2CC2)cc1 [Compound 5-6] | – | – | – | 20 | 12 | 1.5 | –
Cc1c(C(=O)NN2CCCCC2)nn(-c2ccc(Cl)cc2Cl)c1-c1ccc(C#CC2(O)CCCCC2)cc1 [Compound 5-7] | – | – | – | 68 | 20 | 3.5 | –
Cc1c(C(=O)NN2CCCCC2)nn(-c2ccc(Cl)cc2Cl)c1-c1ccc(C#CC2(O)CCCC2)cc1 [Compound 5-8] | – | – | – | 13 | 9 | 1.5 | –
Cc1c(C(=O)NN2CCCCC2)nn(-c2ccc(Cl)cc2Cl)c1-c1ccc(C#Cc2ccccn2)cc1 [Compound 5-9] | – | – | – | 59 | 50 | 1 | –
Cc1c(C(=O)NN2CCCCC2)nn(-c2ccc(Cl)cc2Cl)c1-c1ccc(C#Cc2cccnc2)cc1 [Compound 5-10] | – | – | – | 54 | 15 | 3.6 | –
Cc1c(C(=O)NN2CCCCC2)nn(-c2ccc(Cl)cc2Cl)c1-c1ccc(C#CC(C)(C)C)cc1 [Compound 5-11] | – | – | – | 25 | 25 | 1 | –
Cc1c(C(=O)NN2CCCCC2)nn(-c2ccc(Cl)cc2Cl)c1-c1ccc(C#Cc2ccncc2)cc1 [Compound 5-12] | – | – | – | 421 | 8 | 52 | –
Cc1c(C(=O)NN2CCCCC2)nn(-c2ccc(Cl)cc2Cl)c1-c1ccc(C#CCCN)cc1 [Compound 5-13] | – | – | – | 732 | 20 | 36 | –
Cc1c(C(=O)NN2CCCCC2)nn(-c2ccc(Cl)cc2Cl)c1-c1ccc(C#CCCCN)cc1 [Compound 5-14] | – | – | – | 947 | 46 | 20 | –
Cc1c(C(=O)NN2CCCCC2)nn(-c2ccc(Cl)cc2Cl)c1-c1ccc(C#CCCCCN)cc1 [Compound 5-15] | – | – | – | 1530 | 87 | 17 | –
